Our source for the IC50 values is ChEMBL document CHEMBL1129074, “Inhibitors of human immunodeficiency virus type 1 derived from gp41 transmembrane protein: structure--activity studies” (J Med Chem, 1996).

For orientation: IC50 means the concentration that gives 50% inhibition. A low value points to greater potency in that assay.

Each structure is given as a SMILES string. Peptide text beside a SMILES is read from it.

The test relates to MT4. Briefly: Inhibitory potency of gp41 fragment against HIV-1 induced cytopathic effect in MT-4 cell assay. Particulars: Homo sapiens. In kind it is functional, cell-based.
As for `CC[C@H](C)[C@H](NC(=O)CNC(=O)[C@H](Cc1c[nH]c2ccccc12)NC(=O)[C@@H](NC(=O)[C@@H](NC(=O)[C@H](CC(C)C)NC(=O)[C@H](CCC(N)=O)NC(=O)[C@H](CC(C)C)NC(=O)CNC(=O)CNC(=O)[C@H](CS)NC(C)=O)[C@@H](C)O)C(C)C)C(=O)N[C@@H](CCCCN)C(=O)N[C@@H](CCC(N)=O)C(=O)N[C@@H](CC(C)C)C(=O)N[C@@H](CCC(N)=O)C(=O)N[C@@H](C)C(=O)N[C@@H](CCCN=C(N)N)C(=O)N[C@H](C(=O)N[C@@H](CC(C)C)C(=O)N[C@@H](C)C(=O)N[C@H](C(=O)N[C@@H](CCC(=O)O)C(=O)N[C@@H](CCCN=C(N)N)C(=O)N[C@@H](Cc1ccc(O)cc1)C(=O)N[C@@H](CC(C)C)C(=O)N[C@@H](CCCCN)C(=O)N[C@@H](CC(=O)O)C(=O)N[C@@H](CCC(N)=O)C(=O)O)C(C)C)[C@@H](C)CC` (Ac-CGGLQLTVWGIKQLQARILAVERYLKDQ-OH), it took 60.5 µM to reach half-maximal inhibition (IC50).

For `CC[C@H](C)[C@H](NC(=O)CNC(=O)[C@H](Cc1c[nH]c2ccccc12)NC(=O)[C@@H](NC(=O)[C@@H](NC(=O)[C@H](CC(C)C)NC(=O)[C@H](CCC(N)=O)NC(=O)[C@H](CC(C)C)NC(=O)[C@H](CC(C)C)NC(=O)[C@H](Cc1c[nH]cn1)NC(=O)[C@H](CCC(N)=O)NC(=O)[C@H](CCC(N)=O)NC(=O)[C@H](C)NC(=O)[C@H](CCC(=O)O)NC(=O)[C@@H](NC(=O)[C@H](C)NC(=O)[C@H](CCCN=C(N)N)NC(=O)[C@H](CC(C)C)NC(=O)[C@H](CC(C)C)NC(=O)[C@H](CC(N)=O)NC(=O)[C@H](CC(N)=O)NC(=O)CNC(=O)CNC(=O)[C@H](CS)NC(C)=O)[C@@H](C)CC)[C@@H](C)O)C(C)C)C(=O)N[C@@H](CCCCN)C(=O)N[C@@H](CCC(N)=O)C(=O)O` (Ac-CGGNNLLRAIEAQQHLLQLTVWGIKQ-OH), the IC50 amounted to 14.8 µM. The same measure for `CC[C@H](C)[C@H](NC(C)=O)C(=O)N[C@@H](CCC(=O)O)C(=O)N[C@@H](C)C(=O)N[C@@H](CCC(N)=O)C(=O)N[C@@H](CCC(N)=O)C(=O)N[C@@H](Cc1c[nH]cn1)C(=O)N[C@@H](CC(C)C)C(=O)N[C@@H](CC(C)C)C(=O)N[C@@H](CCC(N)=O)C(=O)N[C@@H](CC(C)C)C(=O)N[C@H](C(=O)N[C@H](C(=O)N[C@@H](Cc1c[nH]c2ccccc12)C(=O)NCC(=O)N[C@H](C(=O)N[C@@H](CCCCN)C(=O)N[C@@H](CCC(N)=O)C(=O)N[C@@H](CC(C)C)C(=O)N[C@@H](CCC(N)=O)C(=O)N[C@@H](C)C(=O)N[C@@H](CCCN=C(N)N)C(=O)N[C@H](C(=O)N[C@@H](CC(C)C)C(=O)N[C@@H](C)C(=O)N[C@H](C(=O)N[C@@H](CCC(=O)O)C(=O)O)C(C)C)[C@@H](C)CC)[C@@H](C)CC)C(C)C)[C@@H](C)O` (Ac-IEAQQHLLQLTVWGIKQLQARILAVE-OH): 6.5 µM; for `CC[C@H](C)[C@H](NC(=O)CNC(=O)[C@H](Cc1c[nH]c2ccccc12)NC(=O)[C@@H](NC(=O)[C@@H](NC(=O)[C@H](CC(C)C)NC(=O)[C@H](CCC(N)=O)NC(=O)[C@H](CC(C)C)NC(=O)[C@H](CC(C)C)NC(=O)[C@H](Cc1c[nH]cn1)NC(=O)[C@H](C)NC(=O)[C@H](CCC(N)=O)NC(=O)[C@H](C)NC(=O)[C@H](CCC(=O)O)NC(=O)[C@@H](NC(=O)[C@H](C)NC(=O)[C@H](CCCN=C(N)N)NC(=O)[C@H](C)NC(=O)[C@H](CC(C)C)NC(=O)[C@H](CC(N)=O)NC(=O)[C@H](CC(N)=O)NC(C)=O)[C@@H](C)CC)[C@@H](C)O)C(C)C)C(=O)N[C@@H](CCCCN)C(=O)N[C@@H](CCC(N)=O)C(=O)N[C@@H](CC(C)C)C(=O)N[C@@H](CCC(N)=O)C(=O)N[C@@H](C)C(=O)N[C@@H](CCCN=C(N)N)C(=O)N[C@H](C(=O)N[C@@H](CC(C)C)C(=O)N[C@@H](C)C(=O)N[C@H](C(=O)N[C@@H](CCC(=O)O)C(=O)N[C@@H](CCCN=C(N)N)C(=O)N[C@@H](Cc1ccc(O)cc1)C(=O)N[C@@H](CC(C)C)C(=O)N[C@@H](CCCCN)C(=O)N[C@@H](CC(=O)O)C(=O)N[C@@H](CCC(N)=O)C(=O)O)C(C)C)[C@@H](C)CC` (Ac-NNLARAIEAQAHLLQLTVWGIKQLQARILAVERYLKDQ-OH): 3 µM. The same measure for `CC[C@H](C)[C@H](NC(=O)CNC(=O)[C@H](Cc1c[nH]c2ccccc12)NC(=O)[C@@H](NC(=O)[C@@H](NC(=O)[C@H](CC(C)C)NC(=O)[C@H](CCC(N)=O)NC(=O)[C@H](CC(C)C)NC(=O)[C@H](CC(C)C)NC(=O)[C@H](Cc1c[nH]cn1)NC(=O)[C@H](CCC(N)=O)NC(C)=O)[C@@H](C)O)C(C)C)C(=O)N[C@@H](CCCCN)C(=O)N[C@@H](CCC(N)=O)C(=O)N[C@@H](CC(C)C)C(=O)N[C@@H](CCC(N)=O)C(=O)N[C@@H](C)C(=O)N[C@@H](CCCN=C(N)N)C(=O)N[C@H](C(=O)N[C@@H](CC(C)C)C(=O)N[C@@H](C)C(=O)N[C@H](C(=O)N[C@@H](CCC(=O)O)C(=O)O)C(C)C)[C@@H](C)CC` (Ac-QHLLQLTVWGIKQLQARILAVE-OH): 4.3 µM; for `CC[C@H](C)[C@H](NC(=O)CNC(=O)[C@H](Cc1c[nH]c2ccccc12)NC(=O)[C@@H](NC(=O)[C@@H](NC(=O)[C@H](CC(C)C)NC(=O)[C@H](CCC(N)=O)NC(=O)[C@H](CC(C)C)NC(=O)[C@H](CC(C)C)NC(=O)[C@H](Cc1c[nH]cn1)NC(=O)[C@H](CCC(N)=O)NC(=O)[C@H](CCC(N)=O)NC(=O)[C@H](C)NC(=O)[C@H](CCC(=O)O)NC(=O)[C@@H](NC(=O)[C@H](C)NC(=O)[C@H](CCCN=C(N)N)NC(=O)[C@H](CC(C)C)NC(=O)[C@H](CC(C)C)NC(=O)[C@H](CC(N)=O)NC(=O)[C@@H](N)CC(N)=O)[C@@H](C)CC)[C@@H](C)O)C(C)C)C(=O)N[C@@H](CCCCN)C(=O)N[C@@H](CCC(N)=O)C(=O)N[C@@H](CC(C)C)C(=O)N[C@@H](CCC(N)=O)C(=O)N[C@@H](C)C(=O)N[C@@H](CCCN=C(N)N)C(=O)N[C@H](C(=O)N[C@@H](CC(C)C)C(=O)N[C@@H](C)C(=O)N[C@H](C(=O)N[C@@H](CCC(=O)O)C(=O)N[C@@H](CCCN=C(N)N)C(=O)N[C@@H](Cc1ccc(O)cc1)C(=O)N[C@@H](CC(C)C)C(=O)N[C@@H](CCCCN)C(=O)N[C@@H](CC(=O)O)C(=O)N[C@@H](CCC(N)=O)C(=O)O)C(C)C)[C@@H](C)CC` (H-NNLLRAIEAQQHLLQLTVWGIKQLQARILAVERYLKDQ-OH): 2.7 µM; for `CC[C@H](C)[C@H](NC(=O)CNC(=O)[C@H](Cc1c[nH]c2ccccc12)NC(=O)[C@@H](NC(=O)[C@@H](NC(=O)[C@H](CC(C)C)NC(=O)[C@H](CCC(N)=O)NC(=O)[C@H](CC(C)C)NC(=O)[C@H](CC(C)C)NC(=O)CCCCCN)[C@@H](C)O)C(C)C)C(=O)N[C@@H](CCCCN)C(=O)N[C@@H](CCC(N)=O)C(=O)N[C@@H](CC(C)C)C(=O)N[C@@H](CCC(N)=O)C(=O)N[C@@H](C)C(=O)N[C@@H](CCCN=C(N)N)C(=O)N[C@H](C(=O)N[C@@H](CC(C)C)C(=O)O)[C@@H](C)CC` (HELM PEPTIDE1{[NCCCCCC(=O)[*:2]].L.L.Q.L.T.V.W.G.I.K.Q.L.Q.A.R.I.L}$$$$V2.0): 10.4 µM.
